Assay results taken from patent US20230107642A1 (Erasca, Inc., priority 2020, published 2023).

target: T1, K-Ras G12C (Homo sapiens, UniProt P01116, G12C); test: CAF assay (% CAF; method in Example 7, not in this part); format: binding; conditions: 10 uM compound, 1 h incubation
T1 construct: This protein contained 188 amino acids in total, including an N-terminal 6-Histidine tag; made in house; host or cells: E. coli BL21

In order of rising “% CAF @ 10 uM, 1h” value:
1. C=CC(=O)N1CCN(c2nc(=O)n3c4c(c(-c5cc(F)c(F)cc5F)c(Cl)cc24)SC[C@H]3COCOC)[C@@H](C)C1 [Example 466, (3R)-7-((S)-4-acryloyl-2-methylpiperazin-1-yl)-9-chloro-3-((methoxymethoxy)methyl)-10-(2,4,5-trifluorophenyl)-2H-[1,4]thiazino[2,3,4-ij]quinazolin-5(3H)-one]  22.6%
2. C=CC(=O)N1CCN(c2nc(=O)n3c4c(c(-c5cc(F)c(F)cc5F)c(C(F)(F)F)cc24)SC[C@H]3COCOC)[C@@H](C)C1 [Example 471, (3R)-7-((S)-4-acryloyl-2-methylpiperazin-1-yl)-3-((methoxymethoxy)methyl)-9-(trifluoromethyl)-10-(2,4,5-trifluorophenyl)-2H-[1,4]thiazino[2,3,4-ij]quinazolin-5(3H)-one]  23.9%
3. C=CC(=O)N1CCN(c2nc(=O)n3c4c(c(-c5cc(Cl)c(F)cc5F)c(C(F)(F)F)cc24)SC[C@H]3COCOC)[C@@H](C)C1 [Example 470, (3R)-7-((S)-4-acryloyl-2-methylpiperazin-1-yl)-10-(5-chloro-2,4-difluorophenyl)-3-((methoxymethoxy)methyl)-9-(trifluoromethyl)-2H-[1,4]thiazino[2,3,4-ij]quinazolin-5(3H)-one]  35%
4. C=CC(=O)N1C[C@H](C)N(c2nc(=O)n3c4c(c(-c5cc(Cl)c(F)cc5F)c(Cl)cc24)SC[C@@H]3CC2CCN(C3CC3)CC2)C[C@H]1C [Example 467, (3S)-7-((2S,5R)-4-acryloyl-2,5-dimethylpiperazin-1-yl)-9-chloro-10-(5-chloro-2,4-difluorophenyl)-3-((1-cyclopropylpiperidin-4-yl)methyl)-2H-[1,4]thiazino[2,3,4-ij]quinazolin-5(3H)-one]  44.3%
5. C=CC(=O)N1CCN(c2nc(=O)n3c4c(c(-c5cc(Cl)c(F)cc5F)c(Cl)cc24)SC[C@@H]3CN2CCN(C3CC3)CC2)[C@@H](C)C1 [Example 458, (3S)-7-((S)-4-acryloyl-2-methylpiperazin-1-yl)-9-chloro-10-(5-chloro-2,4-difluorophenyl)-3-((4-cyclopropylpiperazin-1-yl)methyl)-2H-[1,4]thiazino[2,3,4-ij]quinazolin-5(3H)-one]  55.6%
6. C=CC(=O)N1CCN(c2nc(=O)n3c4c(c(-c5cc(F)c(F)cc5F)c(Cl)cc24)SC[C@@H]3CN2CCC3(CC2)COC3)[C@@H](C)C1 [Example 469, (3S)-3-(2-oxa-7-azaspiro[3.5]nonan-7-ylmethyl)-7-((S)-4-acryloyl-2-methylpiperazin-1-yl)-9-chloro-10-(2,4,5-trifluorophenyl)-2H-[1,4]thiazino[2,3,4-ij]quinazolin-5(3H)-one]  57.8%
7. C=CC(=O)N1C[C@H](C)N(c2nc(=O)n3c4c(c(-c5ccc(F)cc5F)c(Cl)cc24)SC[C@@H]3CN2CCn3c(nnc3C(F)(F)F)C2)C[C@H]1C [Example 468, (3S)-7-((2S,5R)-4-acryloyl-2,5-dimethylpiperazin-1-yl)-9-chloro-10-(2,4-difluorophenyl)-3-((3-(trifluoromethyl)-5,6-dihydro-[1,2,4]triazolo[4,3-a]pyrazin-7(8H)-yl)methyl)-2H-[1,4]thiazino[2,3,4-ij]quinazolin-5(3H)-one]  68.6%
8. C=CC(=O)N1CCN(c2nc(=O)n3c4c(c(-c5cc(F)c(F)cc5F)c(Cl)cc24)SC[C@@H]3CN2CCn3c(nnc3C(F)(F)F)C2)[C@@H](C)C1 [Example 463, (3S)-7-((S)-4-acryloyl-2-methylpiperazin-1-yl)-9-chloro-3-((3-(trifluoromethyl)-5,6-dihydro-[1,2,4]triazolo[4,3-a]pyrazin-7(8H)-yl)methyl)-10-(2,4,5-trifluorophenyl)-2H-[1,4]thiazino[2,3,4-ij]quinazolin-5(3H)-one]  69%
9. C=CC(=O)N1CCN(c2nc(=O)n3c4c(c(-c5ccc(F)cc5F)c(Cl)cc24)SC[C@@H]3CN2CCC3(CC2)COC3)[C@@H](C)C1 [Example 472, (3S)-3-(2-oxa-7-azaspiro[3.5]nonan-7-ylmethyl)-7-((S)-4-acryloyl-2-methylpiperazin-1-yl)-9-chloro-10-(2,4-difluorophenyl)-2H-[1,4]thiazino[2,3,4-ij]quinazolin-5(3H)-one]  72.3%
10. C=CC(=O)N1CCN(c2nc(=O)n3c4c(c(-c5cc(Cl)c(F)cc5F)c(Cl)cc24)SC[C@@H]3CN2CCC3(CC2)COC3)[C@@H](C)C1 [Example 456, (3S)-3-(2-oxa-7-azaspiro[3.5]nonan-7-ylmethyl)-7((S)-4-acryloyl-2-methylpiperazin-1-yl)-9-chloro-10-(5-chloro-2,4-difluorophenyl)-2H-[1,4]thiazino[2,3,4-ij]quinazolin-5(3H)-one]  77.6%
11. C=CC(=O)N1C[C@H](C)N(c2nc(=O)n3c4c(c(-c5cc(Cl)c(F)cc5F)c(Cl)cc24)SC[C@@H]3CC2CCN(CC(F)F)CC2)C[C@H]1C [Example 461, (3S)-7-((2S,5R)-4-acryloyl-2,5-dimethylpiperazin-1-yl)-9-chloro-10-(5-chloro-2,4-difluorophenyl)-3-((1-(2,2-difluoroethyl)piperidin-4-yl)methyl)-2H-[1,4]thiazino[2,3,4-ij]quinazolin-5(3H)-one]  79.5%
12. C=CC(=O)N1C[C@H](C)N(c2nc(=O)n3c4c(c(-c5cc(F)c(F)cc5F)c(Cl)cc24)SC[C@@H]3CN2CCC3(CC2)COC3)C[C@H]1C [Example 460]  79.7%
13. C=CC(=O)N1C[C@H](C)N(c2nc(=O)n3c4c(c(-c5cc(F)c(F)cc5F)c(Cl)cc24)SC[C@@H]3CN2CCn3c(nnc3C(F)(F)F)C2)C[C@H]1C [Example 459, (3S)-7-((2S,5R)-4-acryloyl-2,5-dimethylpiperazin-1-yl)-9-chloro-3-((3-(trifluoromethyl)-5,6-dihydro-[1,2,4]triazolo[4,3-a]pyrazin-7(8H)-yl)methyl)-10-(2,4,5-trifluorophenyl)-2H-[1,4]thiazino[2,3,4-ij]quinazolin-5(3H)-one]  82.2%
14. C=CC(=O)N1CCN(c2nc(=O)n3c4c(c(-c5ccc(F)cc5)c(Cl)cc24)SC[C@@H]3CN2CCC3(CC2)COC3)[C@@H](C)C1 [Example 462, (S)-3-(2-oxa-7-azaspiro[3.5]nonan-7-ylmethyl)-7-((S)-4-acryloyl-2-methylpiperazin-1-yl)-9-chloro-10-(4-fluorophenyl)-2H-[1,4]thiazino[2,3,4-ij]quinazolin-5(3H)-one]  87.8%
15. C=CC(=O)N1CCN(c2nc(=O)n3c4c(c(-c5ccc(F)cc5F)c(C(F)(F)F)cc24)SC[C@@H](OC)C3)[C@@H](C)C1 [Example 464, (3S)-8-((S)-4-acryloyl-2-methylpiperazin-1-yl)-11-(2,4-difluorophenyl)-3-methoxy-10-(trifluoromethyl)-3,4-dihydro-2H,6H-[1,4]thiazepino[2,3,4-ij]quinazolin-6-one]  95%
16. C=CC(=O)N1CCN(c2nc(=O)n3c4c(c(-c5ccc(F)cc5F)c(C(F)(F)F)cc24)SC[C@H](OC)C3)[C@@H](C)C1 [Example 465, (3R)-8-((S)-4-acryloyl-2-methylpiperazin-1-yl)-11-(2,4-difluorophenyl)-3-methoxy-10-(trifluoromethyl)-3,4-dihydro-2H,6H-[1,4]thiazepino[2,3,4-ij]quinazolin-6-one]  96%
